Test results reported in patent US8648116B2, “Derivatives of N-(arylamino) sulfonamides including polymorphs as inhibitors of MEK as well as compositions, methods of use and methods for preparing the same” (Ardea Biosciences, Inc., priority 2005, dated 2014).
Like-named read-outs stand apart in the source and are kept apart here.

Key:
[1] = test system: orthotopic Hep3B2.1-7 human hepatic carcinoma; experiment: Growth response of orthotopic Hep3B tumors in nude mice; type: in vivo, BALB/c nu/nu mice
Experimental: Female BALB/c nu/nu mice (University of Adelaide, Waite Campus, SA, Australia), aged 10-14 weeks, with a body weight range: of 19.1-29.94 g (mean 22.95 g) were used for the study. The mice were divided into 6 Study groups (4 treatment groups and 2 control groups) as follows: • Number of Mice per Group: 10 in Groups 1 to 5 inclusive • 15 in ‘Take-Rate’ Control Group (Group 6)
Hep3B human hepatic carcinoma cells (Passage 2 from working stock VP-Stock 353) were cultured in RPMI1640 cell culture medium, which was supplemented with 10% FBS and penicillin-streptomycin (501 U/mL final concentration). The cells were harvested by trypsinisation, washed twice in HBSS and counted. The cells were then resuspended in HBSS:Matrigel (1:1, v/v) and adjusted to a final volume containing 1×10^8 cells/mL. Prior to inoculation, the incision site was liberally swabbed with alcohol and an incision made through the abdominal wall to expose the liver. The needle was introduced through the surface of the liver where 10 μL of cells (1×10^6 cells) were discharged. The needle was held in this position for approximately 30 seconds to allow the Matrigel® to polymerize in order to avoid leakage of tumor cells into the abdominal cavity.
Treatment commenced 14 days post-inoculation. On Day 7 of the study (21 days post-inoculation), all mice from the ‘Take-Rate’ control group were culled and the livers visually assessed for the presence of tumors.
A stock solution was prepared weekly and stored at 4° C. Dosing solutions were prepared on each day of administration. […] The compound was administered at doses of 2, 10 and 50 mg/kg.
Liver and tumor wet weight were measured when each were excised post-mortem on the termination day of the study. At the termination of the study, livers were excised from all mice in each study group and weighed. The number of visible tumors, if present, was counted. These tumors were removed from the liver and weighed.
A One-Way Analysis of Variance (ANOVA) (All Pairwise Multiple Comparison Procedure and Multiple Comparison versus Control Group) was performed on liver weight and tumor weight data at the end of the study. […] The same statistical analyses were performed on the data for the tumor-bearing mice in the study.

[2] = test system: Colo205 colon cancer cells; experiment: Anchorage-dependent growth inhibition (CellTiterGlo/ATP, 48 hr); details: ATP content
Experimental: (§2) Cells were maintained at 37° C., 5% CO2, and 100% humidity. Colo205 cells were maintained in RPMI supplemented with 10% fetal bovine serum, glutamine (2 mM), penicillin (100 U/ml), and streptomycin (100 μg/ml). For growth inhibition experiments, cells were plated in white 384-well microplates at 1000 cells/20 dwell. After 24 hr, 5 μl of a 5× drug stock solution was added. All drugs were initially prepared as 200× stocks in DMSO, such that final DMSO concentration was 0.5%. Cells were incubated for 48 hr at 37° C. and ATP levels were determined using CellTiterGlo (Promega, Madison, Wis.). […] Non-linear curve-fitting was performed using GraphPad Prism 4 (GraphPad Software, San Diego, Calif.).

[3] = test system: A431 epidermoid cells; experiment: as above; details: read-out: Mean GI50; A431, 48 hr, ATP content, mean of at least three experiments
Experimental: as §2

[4] = test system: HT29 colon cells; experiment: as above; details: read-out: Mean GI50; HT29, 48 hr, ATP content, mean of at least three experiments
Experimental: as §2

[5] = Plasma concentrations in mice (Example 94F); type: in vivo, nu/nu mice; details: mouse efficacy model, typical range
[6] = test system: A375 melanoma cells; experiment: Anchorage-dependent growth inhibition (CellTiterGlo/ATP, 48 hr); type: cell-based, human; details: for GI50: ATP content
[7] = test system: human hepatocytes; experiment: Primary hepatocyte toxicity (AK release, ATP, 48 hr); type: cell-based
Experimental: Plated human hepatocytes were obtained from CellzDirect and processed according to manufacturer's instructions.
(§1) After 48 hr, supernatant AK levels were determined using Toxilight, and cellular ATP levels were determined using CellTiterGlo. Full kill values were determined using 15 μM VRX-14686.

[8] = test system: human A375 melanoma xenografts
[9] = test system: human renal proximal tubule epithelial cells (RPTEC); experiment: Renal cell toxicity (AK release, ATP, 48 hr); type: cell-based
Experimental: Cryopreserved human renal proximal tubule epithelial cells (RPTEC) were obtained from Cambrex and were processed according to manufacturer's instructions. Cells were expanded for 4 days and then plated in 96-well plates at 50,000 cells/well for drug exposure.
as §1

[10] = test system: Colo205 cells; experiment: Anchorage-independent growth inhibition (MTS, 7 days); type: cell-based, human
Experimental: Wells of an “ultra low binding” plate (Corning, Acton Mass.) were filled with 60 μl of a 0.15% agarose solution in complete RPMI. Then, 60 μl complete RPMI containing 9000 Colo205 cells in 0.15% agarose was added per well. After 24 hr, 60 μl of a 3× drug solution in agarose free complete RPMI was added. After 7 days, 36 μl 6×MTS reagent (CellTiter 96 Aqueous, Promega, Madison, Wis.) was added per well. After 2 hr at 37° C., absorbance at 490 nm was determined on the M5 plate reader (Molecular Devices, Sunnyvale, Calif.).
Viability was determined by MTS assay.

With `COc1cc(F)c(F)c(Nc2ccc(I)cc2F)c1NS(=O)(=O)C1(C[C@H](O)CO)CC1` the “liver and tumor weight” value ([1]; 2, 10 and 50 mg/kg p.o. once daily) was “dose-dependent trend in the decrease”, the “average weight of the tumors vs Vehicle Control” value ([1]; tumor-bearing mice, 10 mg/kg p.o. once daily) was “significantly different” and the “average weight of the tumors vs Vehicle Control” value ([1]; tumor-bearing mice, 50 mg/kg p.o. once daily) was “significantly different”. For the same compound, the “average weight of the liver vs Vehicle Control” value ([1]; tumor-bearing mice, 50 mg/kg p.o. once daily, p<0.05) was “significantly different”, the GI50 ([2]; Colo205, separate study, 48 hr) was 0.027 µM and the GI50 ([2]; read-out: Mean GI50, Colo205, 48 hr, mean of at least three experiments) was 0.089 µM. For the same compound, the GI50 [3] was 0.086 µM, the GI50 [4] was 0.07 µM and the half-life [5] was 2 to 3 h. For the same compound, the GI50 ([6]; A375, 48 hr, mean of at least three experiments, read-out: Mean GI50) was 0.071 µM, the GI50 ([6]; A375, separate study, 48 hr, read-out: GI50) was 0.056 µM and the “ATP, Cell viability, % Control” value ([6]; A375 cells, 1 uM, 48 hr) was 27%. For the same compound, the survival ([7]; freshly plated primary human hepatocytes, 30 μM, 48 hr) was 81%, the cytotoxicity ([7]; primary normal human hepatocytes) was “little cytotoxicity” and the “Median TTE” value ([8]; Group 3, 50 mg/kg po qd×14) was 27.5 days. The PR ([8]; Group 3, 50 mg/kg po qd×14) was “A single animal”, the TGD ([8]; Group 3, 50 mg/kg po qd×14) was 21% and the CR ([8]; Group 4, 25 mg/kg po bid×14) was 5/9. For the same compound, the “Median TTE” value ([8]; Group 4, 25 mg/kg po bid×14) was 59.9 days, the PR ([8]; Group 4, 25 mg/kg po bid×14) was 4/9 and the TFS ([8]; Group 4, 25 mg/kg po bid×14) was 4/9. For the same compound, the TGD ([8]; Group 4, 25 mg/kg po bid×14, maximum possible) was 163%, the “Median TTE” value ([8]; Group 5, 25 mg/kg po qd×14) was 25.6 days and the tumor regressions ([8]; Group 5, 25 mg/kg po qd×14) was “no tumor regressions”. The TGD ([8]; Group 5, 25 mg/kg po qd×14, non-significant) was 12%, the “Median TTE” value ([8]; Group 6, 12.5 mg/kg po bid×14) was 27.5 days and the PR ([8]; Group 6, 12.5 mg/kg po bid×14) was “a single PR response”. The TGD ([8]; Group 6, 12.5 mg/kg po bid×14) was 21%, the “ATP depletion and cell lysis” value ([9]; RPTEC cells, 48 hr, cell lysis at 30 W (so in the source)) was “dose dependent ATP depletion and evident cell lysis” and the cytotoxicity ([9]; human renal proximal tubule epithelial cells) was “little cytotoxicity”. For the same compound, the GI50 ([10]; Colo205, anchorage independent, read-out: Mean GI50) was 0.04 µM and the GI50 ([10]; human colorectal carcinoma Colo205 cells, read-out: GI50, anchorage independent growth (FIG. 12A)) was 0.011 µM.
